Data from patent US8361728B2, “Method for diagnosis of glutamate dehydrogenase disorders” (priority 2008, dated 2013).
Several values for one entry are separate records, joined by “and”; a condition that tells them apart may be missing. Equal entries are not always repeated. Where two headings read alike, the source gives them in different places. Each block holds one compound with its values, some of them ahead of it.

Legend:
[1] = biological target: T1, hGDH2 (Homo sapiens, UniProt P49448); assay: Allosteric stimulation of recombinant GDH by ADP or L-leucine; type: biochemical; conditions: positive modulation
T1 construct: made in house; host or cells: Sf21 insect cells, baculovirus
T1 sequence (P49448 54-558): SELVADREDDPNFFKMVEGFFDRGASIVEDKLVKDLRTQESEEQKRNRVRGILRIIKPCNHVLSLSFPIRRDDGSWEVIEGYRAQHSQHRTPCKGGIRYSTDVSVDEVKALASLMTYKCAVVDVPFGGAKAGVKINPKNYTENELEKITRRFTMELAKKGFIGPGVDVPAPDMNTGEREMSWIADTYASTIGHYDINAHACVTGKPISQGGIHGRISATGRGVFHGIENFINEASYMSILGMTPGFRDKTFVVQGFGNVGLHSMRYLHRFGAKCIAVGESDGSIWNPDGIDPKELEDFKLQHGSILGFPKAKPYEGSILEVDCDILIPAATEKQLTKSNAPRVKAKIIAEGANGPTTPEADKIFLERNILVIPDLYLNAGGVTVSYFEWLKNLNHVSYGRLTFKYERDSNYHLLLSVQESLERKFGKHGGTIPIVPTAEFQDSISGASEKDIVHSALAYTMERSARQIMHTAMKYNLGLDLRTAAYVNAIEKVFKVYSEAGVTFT
Method: (§1) Production and Purification of Recombinant hGDHs. […] The produced recombinant hGDHs were purified from Sf21 cell extracts using a previously described method that involves Ammonium Sulfate fractionation, hydrophobic interaction and hydroxyapatite chromatography. […] All hGDH proteins studied were produced and analyzed in parallel.
(§2) Enzyme Assays. GDH activity was assayed spectrophotometrically at 25° C. in the direction of reductive amination of α-ketoglutarate. Initial rates (enzyme velocity at the interval during which the change in absorbance maintained linearity) were recorded. […] Regulation of the human recombinant GDHs by allosteric stimulators was studied by adding to the reaction ADP or L-leucine in various concentrations. Inhibition by GTP was studied by adding this compound in various concentrations to the reaction either in the absence of allosteric modulators or in the presence of 0.1 mM or 1.0 mM ADP. For the heat inactivation studies, samples containing about 50 μg/ml purified enzyme were incubated at 47.5° C. Aliquots were removed at specified time intervals and assayed immediately for enzyme activity.

[2] = biological target: T2, Ala445-hGDH2 (Homo sapiens, UniProt P49448, S498A); assay: as above; type: biochemical; parameters: made in house; host or cells: Sf21 insect cells, baculovirus; conditions: positive modulation
T2 sequence (P49448 54-558 S498A): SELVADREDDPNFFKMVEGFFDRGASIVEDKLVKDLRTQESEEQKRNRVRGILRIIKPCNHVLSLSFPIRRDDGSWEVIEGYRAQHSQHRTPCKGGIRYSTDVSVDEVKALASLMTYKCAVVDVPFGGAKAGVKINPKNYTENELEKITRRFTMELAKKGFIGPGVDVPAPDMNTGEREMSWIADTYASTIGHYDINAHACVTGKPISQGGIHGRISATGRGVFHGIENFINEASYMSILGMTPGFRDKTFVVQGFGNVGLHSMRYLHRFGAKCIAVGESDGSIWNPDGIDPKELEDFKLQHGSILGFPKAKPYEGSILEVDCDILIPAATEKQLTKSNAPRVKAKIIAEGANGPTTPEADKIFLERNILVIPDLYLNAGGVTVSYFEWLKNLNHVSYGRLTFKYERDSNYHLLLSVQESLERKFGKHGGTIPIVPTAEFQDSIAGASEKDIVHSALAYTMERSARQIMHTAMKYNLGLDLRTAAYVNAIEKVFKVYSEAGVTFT
Method: as §1, §2

[3] = biological target: T3, hGDH1 (Homo sapiens, UniProt P00367); assay: as above; type: biochemical; parameters: made in house; host or cells: Sf21 insect cells, baculovirus; conditions: positive modulation
T3 sequence (P00367 54-558): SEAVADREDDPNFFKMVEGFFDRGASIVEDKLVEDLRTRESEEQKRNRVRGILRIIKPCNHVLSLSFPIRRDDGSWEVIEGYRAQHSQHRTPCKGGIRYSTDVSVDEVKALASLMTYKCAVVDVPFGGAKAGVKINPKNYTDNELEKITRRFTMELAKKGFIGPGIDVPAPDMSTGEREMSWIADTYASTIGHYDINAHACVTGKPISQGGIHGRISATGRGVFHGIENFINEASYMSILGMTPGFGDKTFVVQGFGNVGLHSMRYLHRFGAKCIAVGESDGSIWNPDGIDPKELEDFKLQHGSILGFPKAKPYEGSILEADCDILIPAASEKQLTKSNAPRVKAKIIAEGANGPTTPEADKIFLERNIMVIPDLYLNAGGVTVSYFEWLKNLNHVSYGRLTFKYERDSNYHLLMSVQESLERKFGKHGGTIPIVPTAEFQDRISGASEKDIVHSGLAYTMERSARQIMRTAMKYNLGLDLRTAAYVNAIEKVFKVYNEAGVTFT
Method: as §1, §2

[4] = biological target: T2, Ala445-hGDH2
Method: as §1
as §2, with “GDH activity was assayed spectrophotometrically at 25° C. in the direction of reductive amination of α-ketoglutarate.” left out

[5] = biological target: Ser445-hGDH2 (Homo sapiens, UniProt P49448)
Chain of Ser445-hGDH2 (P49448 54-558): as the sequence (P49448 54-558) above
Method: as §1
as §2, with “GDH activity was assayed spectrophotometrically at 25° C. in the direction of reductive amination of α-ketoglutarate.” left out

[6] = biological target: T3, hGDH1
Method: as §1
as §2, with “GDH activity was assayed spectrophotometrically at 25° C. in the direction of reductive amination of α-ketoglutarate.” left out

[7] = biological target: T4, wild-type hGDH1 (Homo sapiens, UniProt P00367); assay: Inhibition of purified recombinant GDH by female steroidal hormones; type: biochemical
T4 construct: made in house; host or cells: Sf21 insect cells, baculovirus
T4 sequence (P00367 54-558): as the sequence (P00367 54-558) above
Method: (§3) For this, a study was performed on the interaction of estrogens with the hGDH2 variant as well as with the wild type-hGDH2 and hGDH1 obtained by expression of the corresponding cDNAs in Sf21 cells.
as §1, §2
(§4) Purification of Recombinant Wild-Type and Mutant hGDHs—Using extracts of Sf21 cells expressing wild-type hGDH1 or hGDH2, or the Arg443Ser hGDH1 mutant were purified to homogeneity using a previously described procedure (Kanavouras et al., 2007). Also, as described below, the Arg443Ser/Gly456Ala double mutant and the Ser409Arg/Asp single mutants of hGDH1 and the Ser445Ala mutant of hGDH2 were studied after they were purified to homogeneity using extracts of Sf21 cells expressing these proteins.

[8] = biological target: T5, wild-type hGDH2 (Homo sapiens, UniProt P49448); assay: as above; type: biochemical; conditions: for relative inhibition of hGDH2 versus hGDH1: in words
T5 construct: made in house; host or cells: Sf21 insect cells, baculovirus
T5 sequence (P49448 54-558): as the sequence (P49448 54-558) above
Method: as §3, §1, §2, §4

[9] = biological target: T6, Ser443-hGDH1 (Arg443Ser hGDH1 mutant) (Homo sapiens, UniProt P00367, R496S); assay: as above; type: biochemical
T6 construct: made in house; host or cells: Sf21 insect cells
T6 sequence (P00367 54-558 R496S): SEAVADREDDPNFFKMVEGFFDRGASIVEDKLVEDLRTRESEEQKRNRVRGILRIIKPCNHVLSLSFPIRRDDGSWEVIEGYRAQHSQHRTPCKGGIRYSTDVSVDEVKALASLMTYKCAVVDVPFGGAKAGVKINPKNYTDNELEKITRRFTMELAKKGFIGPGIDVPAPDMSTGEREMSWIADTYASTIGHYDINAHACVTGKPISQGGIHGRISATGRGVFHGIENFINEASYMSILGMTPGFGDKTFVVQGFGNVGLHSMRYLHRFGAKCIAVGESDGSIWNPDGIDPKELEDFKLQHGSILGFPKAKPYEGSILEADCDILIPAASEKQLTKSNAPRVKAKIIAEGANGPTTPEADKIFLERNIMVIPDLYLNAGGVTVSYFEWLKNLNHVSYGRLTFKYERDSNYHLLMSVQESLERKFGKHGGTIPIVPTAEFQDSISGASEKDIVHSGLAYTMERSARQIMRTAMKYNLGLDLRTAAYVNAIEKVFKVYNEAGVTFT
From the text: (§5) Production and Purification of Recombinant hGDHs.
as §4, with “proteins. Enzyme recoveries and degree of purification of the final products were similar to those of the wild-type hGDH1 and hGDH2.” for “proteins.”
This was further tested by studying a double mutant of hGDH1 that, in addition to the Arg443Ser change, carries the Gly456Ala polymorphism that confers resistance to GTP. […] That substitution of Ser for Arg443 is responsible for the sensitivity of the wild-type hGDH2 to estrogens was confirmed by reverse mutagenesis experiments in which the Ser443 of hGDH2 was replaced by Arg.

[10] = biological target: T1, hGDH2; assay: GTP inhibition of purified recombinant GDH activity; type: biochemical
Method: (§6) To investigate whether the Ser445Ala change modified the protein function of hGDH2, an Ala445-hGDH2 variant was obtained in recombinant form by expressing in Sf21 cells using the baculovirus expression system a GLUD2 cDNA with G instead of 1492T. […] The specific basal activity of the variant was concentration-dependent (FIGS. 6&7), as also previously shown for hGDH2 but not for hGDH1. At enzyme concentrations of about 5 μg/ml, the basal specific activity of the variant approached that of hGDH1 (FIGS. 6 & 7), but in contrast to the latter this activity was resistant to suppression by GTP (Table 3).
as §5

[11] = biological target: T1, hGDH2; conditions: Zaganas and Plaitakis, 2002; read-out: IC50 (GTP inhibition); cited from earlier work
[12] = biological target: T2, Ala445-hGDH2; assay: GTP inhibition of purified recombinant GDH activity; type: biochemical; parameters: made in house; host or cells: Sf21 insect cells, baculovirus
Method: as §6, §5

[13] = biological target: T3, hGDH1; assay: as above; type: biochemical; parameters: made in house; host or cells: Sf21 insect cells, baculovirus
Method: as §6, §5

[14] = biological target: T3, hGDH1; parameters: made in house; host or cells: Sf21 insect cells, baculovirus; conditions: Zaganas and Plaitakis, 2002; read-out: IC50 (GTP inhibition); cited from earlier work
[15] = biological target: T7, Ser445Ala hGDH2 variant (Homo sapiens, UniProt P49448, S498A); assay: Inhibition of purified recombinant GDH by estrogens; type: biochemical; conditions: baseline conditions (absence of allosteric effectors)
T7 construct: made in house; host or cells: Sf21 insect cells, baculovirus
T7 sequence (P49448 54-558 S498A): as the sequence (P49448 54-558 S498A) above
Method: as §3, §5

[16] = No ADP (baseline conditions), read-out: IC50

Compound: CC(C)C[C@H](N)C(=O)O [L-leucine]
EC50 ([1]; read-out: L-leucine SC50): 1010 ± 213 µM | EC50 ([2]; read-out: L-leucine SC50): 955 ± 45 µM | EC50 ([3]; read-out: L-leucine SC50): 860 ± 139 µM

Compound: N[C@@H](CCC(=O)O)C(=O)O [Glutamate]
Km ([4]; read-out: Km Glutamate): 6.8 ± 1.9 mM | Km ([5]; read-out: Km Glutamate): 10.7 ± 1.77 mM | Km ([6]; read-out: Km Glutamate): 12.4 ± 1.48 mM

Compound: O=C(O)CCC(=O)C(=O)O [α-Ketoglutarate]
Km ([4]; read-out: Km α-Ketoglutarate): 2.67 ± 0.31 mM | Km ([5]; read-out: Km α-Ketoglutarate): 2.07 ± 0.29 mM | Km ([6]; read-out: Km α-Ketoglutarate): 2.01 ± 0.18 mM

Compound: C[C@]12CC[C@@H]3c4ccc(O)cc4CC[C@H]3[C@@H]1CC[C@@H]2O [17 b-Estradiol, 17 beta-estradiol]
IC50 ([7]; IC50, 0.1 mM ADP): 69.2 ± 1.3 µM | IC50 ([7]; IC50, No ADP (baseline conditions)): 26.9 µM | IC50 [9]: 2.22 ± 0.76 µM

Compound: CC/C(=C(/CC)c1ccc(O)cc1)c1ccc(O)cc1 [DES, diethylstilbestrol]
IC50 ([7]; 0.1 mM ADP, read-out: IC50): 7.07 ± 0.4 µM | IC50 [7, 16]: 1.67 ± 0.02 µM | IC50 ([7]; baseline conditions (absence of allosteric effectors), read-out: IC50±S.E.): 1.53 µM | IC50 ([8]; 0.1 mM ADP): 1.05 ± 0.09 µM | IC50 ([8]; No ADP (baseline conditions)): 0.094 µM and 0.09 µM | fold higher sensitivity/affinity of hGDH2 than hGDH1 ([8]; baseline conditions, hGDH2 versus hGDH1): > 15 fold and ~18 fold | effect of inhibitor on Km for α-ketoglutarate, NH3 or glutamate ([8]; inhibitory concentrations of DES, wild-type hGDH1 and hGDH2): not altered | IC50 ([9]; 0.1 mM ADP, read-out: IC50): 0.51 ± 0.05 µM | IC50 [15]: 0.019 ± 0.003 µM

Now from value to compound, other results behind:

IC50 ([7]; 0.1 mM ADP, read-out: IC50): 596 ± 50.1 µM | IC50 [7, 16]: 219 ± 7.99 µM | IC50 ([8]; 0.1 mM ADP): 392 ± 8.91 µM | IC50 ([8]; No ADP (baseline conditions)): 12.3 ± 2.63 µM | relative inhibition of hGDH2 versus hGDH1 [8]: inhibited hGDH2 more strongly than hGDH | relative inhibition of hGDH2 versus hGDH1 ([8]; listed as progesterone): inhibited hGDH2 more strongly than hGDH1 | IC50 ([9]; 0.1 mM ADP, read-out: IC50): 8.62 ± 1.23 µM
Compound: CC(=O)[C@H]1CC[C@H]2[C@@H]3CCC4=CC(=O)CC[C@]4(C)[C@H]3CC[C@]12C [Progesterone]

Hill Coefficient ([10]; 0.1 mM ADP): 1.06 ± 0.16 | IC50 ([10]; 0.1 mM ADP): 12.2 ± 2.65 µM | Hill Coefficient ([10]; 1 mM ADP): 0.82 ± 0.11 | IC50 ([10]; 1 mM ADP): 204 ± 36.4 µM | Hill Coefficient ([10]; No ADP): 0.72 ± 0.05 | IC50 ([10]; No ADP): 40.1 ± 4.46 µM | Hill Coefficient ([12]; 0.1 mM ADP): 1.01 ± 0.09 | IC50 ([12]; 0.1 mM ADP): 24.4 ± 2.62 µM | Hill Coefficient ([12]; 1 mM ADP): 0.71 ± 0.04 | IC50 ([12]; 1 mM ADP): 258 ± 42.2 µM | Hill Coefficient ([12]; No ADP): 0.80 ± 0.05 | IC50 ([12]; No ADP): 29.1 ± 4.48 µM | Hill Coefficient ([13]; 0.1 mM ADP): 2.13 ± 0.15 | IC50 ([13]; 0.1 mM ADP): 1.61 ± 0.02 µM | Hill Coefficient ([13]; 1 mM ADP): 1.94 ± 0.07 | IC50 ([13]; 1 mM ADP): 18.5 ± 0.49 µM | Hill Coefficient ([13]; No ADP): 1.51 ± 0.07 | IC50 ([13]; No ADP): 0.31 ± 0.03 µM
Compound: Nc1nc2c(ncn2[C@@H]2O[C@H](COP(=O)(O)OP(=O)(O)OP(=O)(O)O)[C@@H](O)[C@H]2O)c(=O)[nH]1 [GTP]
IC50 [11]: > 200 µM | IC50 [14]: 0.1 to 0.3 µM

IC50 ([7]; 0.1 mM ADP, read-out: IC50): 316 ± 26.1 µM | IC50 [7, 16]: 145 ± 18.8 µM | IC50 ([8]; 0.1 mM ADP): 189 ± 17.9 µM | IC50 ([8]; No ADP (baseline conditions)): 11.3 ± 0.74 µM | relative inhibition of hGDH2 versus hGDH1 [8]: inhibited hGDH2 more strongly than hGDH | relative inhibition of hGDH2 versus hGDH1 ([8]; listed as oestriol): inhibited hGDH2 more strongly than hGDH1 | IC50 ([9]; 0.1 mM ADP, read-out: IC50): 2.43 ± 0.05 µM
Compound: C[C@]12CC[C@@H]3c4ccc(O)cc4CC[C@H]3[C@@H]1C[C@@H](O)[C@@H]2O [Oestriol]

EC50 ([1]; read-out: ADP SC50): 68.5 ± 2.3 µM | EC50 ([2]; read-out: ADP SC50): 58.2 ± 5.5 µM | EC50 ([3]; read-out: ADP SC50): 22.4 ± 2.1 µM
Compound: Nc1ncnc2c1ncn2[C@@H]1O[C@H](COP(=O)(O)OP(=O)(O)O)[C@@H](O)[C@H]1O [ADP]
